This note sets out measurements from patent US20150352108A1, “AMINO-PYRIMIDINE COMPOUNDS AS INHIBITORS OF TBK1 AND/OR IKK EPSILON” (Alzheimer's Institute of America, priority 2009, published 2015).

pIC50: −log10 of the molar value. A value given as a limit tells only on which side of the number the result lay.

One assay deals with T1, TBK1 (Homo sapiens, UniProt Q9UHD2).
T1 construct: His-tag; made in house; host or cells: Sf9 insect cells
T1 sequence (Q9UHD2 1-729): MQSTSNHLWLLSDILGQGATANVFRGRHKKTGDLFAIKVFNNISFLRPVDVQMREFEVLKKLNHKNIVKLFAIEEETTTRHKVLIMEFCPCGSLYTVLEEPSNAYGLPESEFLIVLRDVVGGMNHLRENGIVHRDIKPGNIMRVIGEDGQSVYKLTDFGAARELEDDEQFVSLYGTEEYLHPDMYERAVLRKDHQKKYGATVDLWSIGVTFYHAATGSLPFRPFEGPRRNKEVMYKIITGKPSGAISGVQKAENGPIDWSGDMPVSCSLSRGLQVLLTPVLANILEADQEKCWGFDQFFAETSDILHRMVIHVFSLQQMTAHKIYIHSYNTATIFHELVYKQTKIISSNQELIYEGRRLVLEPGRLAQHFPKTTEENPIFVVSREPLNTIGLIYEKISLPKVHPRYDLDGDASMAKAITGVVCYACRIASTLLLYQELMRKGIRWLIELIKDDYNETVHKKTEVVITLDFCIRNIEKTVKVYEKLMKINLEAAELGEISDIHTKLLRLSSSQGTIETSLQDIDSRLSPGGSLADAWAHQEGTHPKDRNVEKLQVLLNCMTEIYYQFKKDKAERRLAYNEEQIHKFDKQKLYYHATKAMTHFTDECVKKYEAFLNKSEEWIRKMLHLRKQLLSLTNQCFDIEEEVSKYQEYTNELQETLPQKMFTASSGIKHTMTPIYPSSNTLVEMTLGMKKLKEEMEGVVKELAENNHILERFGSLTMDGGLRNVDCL
Briefly: In-vitro TBK1 kinase assay ([γ33]ATP filter-plate). It is filed as biochemical. As to conditions: text bins; read-out: IC50 for inhibition of the kinase activity of TBK1. In a few lines: (§1)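 Phosphorylation of casein or myelin basic protein was counted by P-81 filter capture after 30-45 min reactions stopped with phosphoric acid, with counts normalized to DMSO after background subtraction. ATP was twice Km: 60 μM for TBK1 and 32 μM for IKKε, plus [γ33]ATP. Sf9-expressed His-tag enzymes were used at normal/sensitized levels of 0.1/0.02 μg/ml (TBK1) and 0.1/0.015 μg/ml (IKKε).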

Another assay deals with T2, IKKε (Homo sapiens, UniProt Q14164).
T2 construct: His-tag; made in house; host or cells: Sf9 insect cells
T2 sequence (Q14164 1-716): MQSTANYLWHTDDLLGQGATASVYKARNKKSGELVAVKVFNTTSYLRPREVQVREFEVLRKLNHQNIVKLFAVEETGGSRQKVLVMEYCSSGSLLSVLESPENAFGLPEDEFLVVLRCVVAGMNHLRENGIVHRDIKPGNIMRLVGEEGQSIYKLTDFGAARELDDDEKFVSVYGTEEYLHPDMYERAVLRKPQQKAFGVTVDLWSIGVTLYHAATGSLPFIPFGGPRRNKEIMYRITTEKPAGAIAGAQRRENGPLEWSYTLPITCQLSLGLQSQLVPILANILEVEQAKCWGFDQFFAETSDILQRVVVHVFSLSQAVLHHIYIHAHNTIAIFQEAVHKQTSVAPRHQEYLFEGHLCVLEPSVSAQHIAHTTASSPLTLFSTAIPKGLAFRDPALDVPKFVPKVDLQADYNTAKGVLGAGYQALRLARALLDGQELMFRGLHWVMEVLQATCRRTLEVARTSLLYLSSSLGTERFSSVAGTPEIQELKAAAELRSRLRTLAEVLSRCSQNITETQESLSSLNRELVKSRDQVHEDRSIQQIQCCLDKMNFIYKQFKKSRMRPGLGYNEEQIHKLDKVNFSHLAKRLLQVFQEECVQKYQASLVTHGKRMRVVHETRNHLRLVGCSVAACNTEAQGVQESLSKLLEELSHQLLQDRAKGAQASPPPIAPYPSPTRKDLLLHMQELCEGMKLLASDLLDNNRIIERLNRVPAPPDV
As to the kind of experiment: In-vitro IKKε kinase assay ([γ33]ATP filter-plate). It is filed as biochemical. As to conditions: text bins; read-out: IC50 for inhibition of the kinase activity of IKKε. In a few lines: as §1

For assay [1], the system named is IKKε-mediated phosphorylation of IRF3. As to the kind of experiment: In-situ phosphorylation of IRF3 (pIRF3 Ser396 ELISA) in HEK293T cells cotransfected with IRF3 and IKKε. Particulars: Homo sapiens, HEK-293T; HEK293T cells, 20 hours, text bins; read-out: IC50 for inhibition of the in-situ IKKε-mediated phosphorylation of IRF3. It is filed as cell-based. In a few lines:
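Cells for the IRF7 Western blots carried IRF7 and TBK1 plasmids, were seeded at 150,000/well, exposed to compound overnight and probed for pSer477/Ser479 IRF7. The ELISA readout used IRF3 + IKKε-cotransfected HEK293T at 20,000/well with 20 h treatment, quantifying pSer396 IRF3 relative to DMSO, plus a parallel CellTiter-Glo viability check.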
For orientation: ELISA stands for enzyme-linked immunosorbent assay.

A word on the pIC50: it is −log10 of the IC50, conventionally taken in molar units. Regarding `N#Cc1cc(-c2ccnc(Nc3ccc(CN4CCN(CCO)CC4)cc3)n2)ccc1OC1CCOCC1` [compound 511, 5-{2-[(4-{[4-(2-hydroxyethyl)piperazin-1-yl]methyl}phenyl)amino]pyrimidin-4-yl}-2-(tetrahydro-2H-pyran-4-yloxy)benzonitrile], the pIC50 at TBK1 was over 8.00; at IKKε, over 8.30; in assay [1] it was 6.60 to 7.00.

Turning to `Cc1ccc(Nc2nccc(-c3ccc(OC4CCOCC4)c(C#N)c3)n2)cc1OCCCN1CCOCC1` [compound 517, 5-[2-({4-Methyl-3-[3-(morpholin-4-yl)propoxy]phenyl}amino)pyrimidin-4-yl]-2-(tetrahydro-2H-pyran-4-yloxy)benzonitrile], the pIC50 was over 8.00 at TBK1, over 8.30 at IKKε and over 7.00 in assay [1].

With `N#Cc1cc(-c2ccnc(Nc3cccc(OCCN4CCOCC4)c3)n2)ccc1OC1CCOCC1` [compound 518, 5-[2-({3-[2-(Morpholin-4-yl)ethoxy]phenyl}amino)pyrimidin-4-yl]-2-(tetrahydro-2H-pyran-4-yloxy)benzonitrile], the pIC50 at TBK1 was over 8.00; at IKKε it was over 8.30; in assay [1], over 7.00.

As for `N#Cc1cc(-c2ccnc(Nc3ccc(F)c(OCCCN4CCOCC4)c3)n2)ccc1OC1CCOCC1` [compound 519, 5-[2-({4-Fluoro-3-[3-(morpholin-4-yl)propoxy]phenyl}amino)pyrimidin-4-yl]-2-(tetrahydro-2H-pyran-4-yloxy)benzonitrile], the pIC50 on TBK1 was over 8.00; on IKKε, over 8.30; in assay [1] it was over 7.00.

Turning to `COc1ccc(Nc2nccc(-c3ccc(OC4CCOCC4)c(C#N)c3)n2)cc1OCCCC1CCN(C(C)C)CC1` [compound 520, 5-{2-[(4-medthoxy-3-{3-[1-(propan-2-yl)piperidin-4-yl]propoxy}phenyl)amino]pyrimidin-4-yl}-2-(tetrahydro-2H-pyran-4-yloxy)benzonitrile], the pIC50 on TBK1 is over 8.00; on IKKε, over 8.30; in assay [1], over 7.00.

For `CCN1CCC(CCCOc2cc(Nc3nccc(-c4ccc(OC5CCOCC5)c(C#N)c4)n3)ccc2OC)CC1` [compound 521, 5-[2-({3-[3-(1-ethylpiperidin-4-yl)propoxy]-4-methoxyphenyl}amino)pyrimidin-4-yl]-2-(tetrahydro-2H-pyran-4-yloxy)benzonitrile], the pIC50 at TBK1 is over 8.00; at IKKε, over 8.30; in assay [1], over 7.00.

Turning to `COc1ccc(Nc2nccc(-c3ccc(OC4CCOCC4)c(C#N)c3)n2)cc1OCCCC1CCNCC1` [compound 522, 5-[2-({4-methoxy-3-[3-(piperidin-4-yl)propoxy]phenyl}amino)pyrimidin-4-yl]-2-(tetrahydro-2H-pyran-4-yloxy)benzonitrile], the pIC50 at TBK1 was over 8.00; at IKKε, over 8.30; in assay [1], over 7.00.

As to `COc1ccc(Nc2nccc(-c3ccc(OC4CCOCC4)c(C#N)c3)n2)cc1OCCCN1CCN(C(C)C)CC1` [compound 523, 5-{2-[(4-methoxy-3-{3-[4-(propan-2-yl)piperazin-1-yl]propoxy}phenyl)amino]pyrimidin-4-yl}-2-(tetrahydro-2H-pyran-4-yloxy)benzonitrile], the pIC50 at TBK1 is over 8.00; at IKKε, over 8.30; in assay [1], over 7.00.

Take `COc1ccc(Nc2nccc(-c3ccc(OC4CCOCC4)c(C#N)c3)n2)cc1OCCCN1CCN(C(=O)C(C)C)CC1` [compound 524, 5-{2-[(4-methoxy-3-{3-[4-(2-methylpropanoyl)piperazin-1-yl]propoxy}phenyl)amino]pyrimidin-4-yl}-2-(tetrahydro-2H-pyran-4-yloxy)benzonitrile]: the pIC50 on TBK1 was over 8.00; on IKKε, over 8.30; in assay [1], 6.60 to 7.00.

On to `CCN1CCN(CCCOc2cc(Nc3nccc(-c4ccc(OC5CCOCC5)c(C#N)c4)n3)ccc2OC)CC1` [compound 525, 5-[2-({3-[3-(4-ethylpiperazin-1-yl)propoxy]-4-methoxyphenyl}amino)pyrimidin-4-yl]-2-(tetrahydro-21H-pyran-4-yloxy)benzonitrile], for which the pIC50 at TBK1 was over 8.00; at IKKε it was over 8.30; in assay [1], over 7.00.

On to `COc1ccc(Nc2nccc(-c3ccc(OC4CCOCC4)c(C#N)c3)n2)cc1OCCCN1CCNCC1` [compound 526, 5-[2-({4-methoxy-3-[3-(piperazin-1-yl)propoxy]phenyl}amino)pyrimidin-4-yl]-2-(tetrahydro-2H-pyran-4-yloxy)benzonitrile], for which the pIC50 on TBK1 is over 8.00; on IKKε, over 8.30; in assay [1] it was 6.60 to 7.00.

`N#Cc1cc(-c2ccnc(Nc3ccc(OCCCN4CCOCC4)cc3)n2)ccc1OC1CCOCC1` [compound 527, 5-[2-({4-[3-(morpholin-4-yl)propoxy]phenyl}amino)pyrimidin-4-yl]-2-(tetrahydro-2H-pyran-4-yloxy)benzonitrile]: the pIC50 on TBK1 is over 8.00; at IKKε, over 8.30; in assay [1] it was over 7.00.

Consider `N#Cc1cc(-c2ccnc(Nc3cccc(OCCCN4CCOCC4)c3)n2)ccc1OC1CCOCC1` [compound 528, 5-[2-({3-[3-(morpholin-4-yl)propoxy]phenyl}amino)pyrimidin-4-yl]-2-(tetrahydro-2H-pyran-4-yloxy)benzonitrile], for which the results for the pIC50 (at TBK1; on IKKε; in assay [1]) were over 8.00, 7.30 to 8.30 and 6.30 to 6.60, respectively.

For the compound `COc1ccc(Nc2nccc(-c3ccc(OC4CCOCC4)c(C#N)c3)n2)cc1OCCCN1CCOCC1` [compound 529, 5-[2-({4-methoxy-3-[3-(morpholin-4-yl)propoxy]phenyl}amino)pyrimidin-4-yl]-2-(tetrahydro-2H-pyran-4-yloxy)benzonitrile], the pIC50 at TBK1 was over 8.00; at IKKε it was over 8.30; in assay [1] it was over 7.00.

As for `CCN(CC)CCOc1ccc(Nc2nccc(-c3ccc(OC4CCOCC4)c(C#N)c3)n2)cc1OC` [compound 530], the pIC50 was over 8.00 at TBK1, over 8.30 at IKKε and over 7.00 in assay [1].

As for `CCN(CC)CCOCCOc1cc(Nc2nccc(-c3ccc(OC4CCOCC4)c(C#N)c3)n2)ccc1OC` [compound 531, 5-{2-[(3-{2-[2-(diethylamino)ethoxy]ethoxy}-4-methoxyphenyl)amino]pyrimidin-4-yl}-2-(tetrahydro-2H-pyran-4-yloxy)benzonitrile], the pIC50 on TBK1 is over 8.00; at IKKε it was over 8.30; in assay [1] it was over 7.00.

As to `Cc1ccc(Nc2nccc(-c3ccc(OC4CCOCC4)c(C#N)c3)n2)cc1OCCN1CCNCC1` [compound 533, 5-[2-({4-Methyl-3-[2-(piperazin-1-yl)ethoxy]phenyl}amino)pyrimidin-4-yl]-2-(tetrahydro-2H-pyran-4-yloxy)benzonitrile], the results for the pIC50 (on TBK1; at IKKε; in assay [1]) were over 8.00, over 8.30 and over 7.00, respectively.
